Laboratory results from ChEMBL document CHEMBL1128533, “Synthesis and ligand binding study of 3 beta-(4'-substituted phenyl)-2 beta-(heterocyclic)tropanes” (J Med Chem, 1995).

How the values were obtained:
[1] = molecular target: Sodium-dependent dopamine transporter (Rattus norvegicus, UniProt P23977); experiment: Binding affinity towards dopamine transporter was determined using DA[3H]WIN-35428 as radioligand
[2] = Ratio of IC50 of norepinephrine to dopamine
[3] = molecular target: Monoamine transporters; serotonin & dopamine (Homo sapiens) (UniProt P31645+Q01959); experiment: Ratio of IC50 of 5-hydroxy tryptamine to dopamine; assay type: protein assay
Sequence of Monoamine transporters; serotonin & dopamine (Homo sapiens) (P31645 whole entry, looked up): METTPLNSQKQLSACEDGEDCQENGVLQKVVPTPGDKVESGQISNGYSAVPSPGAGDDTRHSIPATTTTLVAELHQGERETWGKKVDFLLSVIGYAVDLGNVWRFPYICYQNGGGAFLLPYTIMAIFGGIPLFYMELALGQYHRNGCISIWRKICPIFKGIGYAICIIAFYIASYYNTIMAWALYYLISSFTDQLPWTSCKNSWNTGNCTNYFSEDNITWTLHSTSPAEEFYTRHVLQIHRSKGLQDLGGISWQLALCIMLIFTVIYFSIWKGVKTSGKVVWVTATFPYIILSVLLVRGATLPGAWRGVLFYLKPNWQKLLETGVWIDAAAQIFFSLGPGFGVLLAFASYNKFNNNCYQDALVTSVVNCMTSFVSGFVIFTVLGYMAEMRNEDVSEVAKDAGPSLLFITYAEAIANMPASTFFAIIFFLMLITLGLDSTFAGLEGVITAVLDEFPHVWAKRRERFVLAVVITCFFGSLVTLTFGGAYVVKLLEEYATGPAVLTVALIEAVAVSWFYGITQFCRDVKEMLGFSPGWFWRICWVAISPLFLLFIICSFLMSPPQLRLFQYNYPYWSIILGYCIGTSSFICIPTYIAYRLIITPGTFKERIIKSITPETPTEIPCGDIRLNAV
Sequence of Monoamine transporters; serotonin & dopamine (Homo sapiens) (Q01959 whole entry, looked up): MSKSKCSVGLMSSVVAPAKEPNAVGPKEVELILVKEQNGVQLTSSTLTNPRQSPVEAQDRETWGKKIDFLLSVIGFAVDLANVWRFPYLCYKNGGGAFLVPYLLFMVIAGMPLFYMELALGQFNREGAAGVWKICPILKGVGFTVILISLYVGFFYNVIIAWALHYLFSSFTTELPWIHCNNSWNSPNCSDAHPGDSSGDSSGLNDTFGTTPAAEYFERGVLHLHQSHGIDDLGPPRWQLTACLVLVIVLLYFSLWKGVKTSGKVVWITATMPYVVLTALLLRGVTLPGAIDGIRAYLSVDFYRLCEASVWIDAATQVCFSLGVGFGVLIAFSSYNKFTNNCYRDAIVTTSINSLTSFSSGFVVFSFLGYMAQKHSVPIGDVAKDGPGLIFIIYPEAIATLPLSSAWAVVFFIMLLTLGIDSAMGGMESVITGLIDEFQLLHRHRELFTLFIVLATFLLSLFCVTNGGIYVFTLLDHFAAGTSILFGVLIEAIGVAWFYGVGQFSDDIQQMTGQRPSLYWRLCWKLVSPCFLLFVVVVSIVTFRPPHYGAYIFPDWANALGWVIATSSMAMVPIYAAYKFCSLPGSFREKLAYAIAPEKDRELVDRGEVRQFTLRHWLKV

[4] = molecular target: Norepinephrine transporter (Rattus norvegicus, UniProt Q9WTR4); experiment: Binding affinity towards Norepinephrine transporter was determined using NE[3H]Nisoxetine as radioligand
Sequence of Norepinephrine transporter (Q9WTR4 whole entry): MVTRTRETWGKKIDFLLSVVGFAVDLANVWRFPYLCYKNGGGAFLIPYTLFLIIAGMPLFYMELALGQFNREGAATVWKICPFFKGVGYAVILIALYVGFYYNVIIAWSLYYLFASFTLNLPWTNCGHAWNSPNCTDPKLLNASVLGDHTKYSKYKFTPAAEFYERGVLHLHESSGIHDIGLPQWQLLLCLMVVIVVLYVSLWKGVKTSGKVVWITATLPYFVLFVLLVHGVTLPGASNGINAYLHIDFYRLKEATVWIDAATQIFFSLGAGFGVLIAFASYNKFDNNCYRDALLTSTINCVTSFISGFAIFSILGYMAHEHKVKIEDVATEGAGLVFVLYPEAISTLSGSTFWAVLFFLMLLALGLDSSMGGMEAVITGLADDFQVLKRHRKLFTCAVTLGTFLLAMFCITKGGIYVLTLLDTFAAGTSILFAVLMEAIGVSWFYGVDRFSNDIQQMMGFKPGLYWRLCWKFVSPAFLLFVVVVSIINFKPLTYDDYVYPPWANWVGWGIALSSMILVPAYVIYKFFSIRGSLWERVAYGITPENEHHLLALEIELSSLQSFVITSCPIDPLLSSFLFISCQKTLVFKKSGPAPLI

[5] = molecular target: Sodium-dependent serotonin transporter (Rattus norvegicus, UniProt P31652); experiment: Binding affinity towards Serotonin transporter was determined using 5-HT [3H]paroxetine as radioligand
Sequence of Sodium-dependent serotonin transporter (P31652 whole entry): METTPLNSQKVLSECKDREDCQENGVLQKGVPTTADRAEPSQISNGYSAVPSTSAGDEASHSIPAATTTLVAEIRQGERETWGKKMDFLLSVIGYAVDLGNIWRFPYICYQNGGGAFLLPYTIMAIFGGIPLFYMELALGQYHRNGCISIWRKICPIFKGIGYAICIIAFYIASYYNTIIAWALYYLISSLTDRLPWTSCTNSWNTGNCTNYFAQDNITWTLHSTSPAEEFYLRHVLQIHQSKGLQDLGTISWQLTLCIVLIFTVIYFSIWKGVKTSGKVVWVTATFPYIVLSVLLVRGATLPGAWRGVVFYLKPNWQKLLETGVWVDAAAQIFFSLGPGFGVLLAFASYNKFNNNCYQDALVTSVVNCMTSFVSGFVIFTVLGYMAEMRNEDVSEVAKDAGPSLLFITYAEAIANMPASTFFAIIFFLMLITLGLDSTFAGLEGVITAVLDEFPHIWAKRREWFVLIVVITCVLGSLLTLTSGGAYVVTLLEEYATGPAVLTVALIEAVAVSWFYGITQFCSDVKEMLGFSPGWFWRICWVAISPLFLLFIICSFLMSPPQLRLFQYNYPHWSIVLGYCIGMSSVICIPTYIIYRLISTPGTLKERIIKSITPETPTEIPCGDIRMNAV

Sequence of Sodium-dependent dopamine transporter (P23977 whole entry): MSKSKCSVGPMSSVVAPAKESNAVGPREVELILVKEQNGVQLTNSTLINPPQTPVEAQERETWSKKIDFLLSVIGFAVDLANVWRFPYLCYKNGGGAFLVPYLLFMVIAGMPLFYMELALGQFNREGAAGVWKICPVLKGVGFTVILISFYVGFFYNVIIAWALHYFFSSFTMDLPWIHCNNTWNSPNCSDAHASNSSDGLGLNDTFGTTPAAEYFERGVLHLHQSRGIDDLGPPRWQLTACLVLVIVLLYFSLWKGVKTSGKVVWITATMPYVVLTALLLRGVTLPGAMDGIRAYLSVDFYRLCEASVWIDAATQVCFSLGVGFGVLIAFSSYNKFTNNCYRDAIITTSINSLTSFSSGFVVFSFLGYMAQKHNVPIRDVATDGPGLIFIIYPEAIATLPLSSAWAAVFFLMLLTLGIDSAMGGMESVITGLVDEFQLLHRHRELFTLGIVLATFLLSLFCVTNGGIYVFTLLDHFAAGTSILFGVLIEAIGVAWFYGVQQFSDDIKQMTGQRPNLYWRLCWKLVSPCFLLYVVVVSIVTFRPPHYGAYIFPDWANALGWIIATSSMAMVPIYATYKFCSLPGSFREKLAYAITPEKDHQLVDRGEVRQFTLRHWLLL

SMILES: CN1C2CC[C@@H]1C[C@H](c1ccc(Cl)cc1)C2c1cc(-c2ccccc2)no1 (some centres undefined)
- IC50 [1]: 1.28 nM
- Ratio [2]: 394
- Ratio [3]: 1890
- IC50 [4]: 504 nM
- IC50 [5]: 2420 nM

SMILES: CN1C2CCC1C(c1ncc(-c3ccccc3)o1)C(c1ccc(Cl)cc1)C2 (centres undefined)
- IC50 [1]: 19.7 nM
- Ratio [2]: 25
- Ratio [3]: 57
- IC50 [4]: 496 nM

SMILES: CN1C2CCC1C(C(=O)Oc1ccccc1)C(c1ccc(Cl)cc1)C2 (centres undefined)
- Ratio [2]: 1490
- Ratio [3]: 1180

SMILES: CN1C2CCC1C(c1nnc(-c3ccccc3)o1)C(c1ccc(Cl)cc1)C2 (centres undefined)
- IC50 [1]: 12.6 nM
- Ratio [2]: 74
- Ratio [3]: 262
- IC50 [4]: 929 nM

SMILES: CN1C2CCC1C(c1nc(-c3ccccc3)no1)C(c1ccc(Cl)cc1)C2 (centres undefined)
- IC50 [1]: 1.62 nM
- Ratio [2]: 151
- Ratio [3]: 120
- IC50 [4]: 245 nM
